Laboratory results published in patent publication US20250346606A1, “CAMPTOTHECIN COMPOUND, PREPARATION METHOD THEREFOR, AND APPLICATION THEREOF” (SICHUAN KELUN-BIOTECH BIOPHARMACEUTICAL CO., LTD., priority 2021, published 2025).
pIC50: −log10 of the molar value. Where two headings read alike, the source gives them in different places.

What was measured:
Type in all cases: cell-based, Human
HT29 cells = assay: Inhibitory effect of compounds on HT29 cell proliferation; settings: read-out: IC50, inhibitory activity on HT29 cell proliferation
Method: (1) Cell plating: First, tumor cells HT29 were cultured in corresponding medium, then digested with trypsin, centrifuged, resuspended, and counted, and the cells were adjusted to an appropriate concentration for plating.
(§1) Co-incubation of the compound of the present disclosure and tumor cells: after the cells adhered to the wall, the medium was removed, and the diluted bioactive molecule (the compound of the present disclosure) was added to the wells of the above plate, and incubated for 72 h.
(§2) In vitro cell viability detection: After the incubation, 50 μL of Cell Counting-Lite™ 2.0 reagent (Vazyme/Novazyme) was added to each well, shaken and mixed well in the dark, reacted for 10 minutes, and then the detection was carried out with a microplate reader (manufacturer: BMG, Model: PHERAStar-FS) for reading. The background RLU was obtained by using cell-free medium (with Cell Counting-Lite™), and the vehicle RLU was obtained by using cell-containing medium (with Cell Counting-Lite™). Cell inhibition rate=1−(sample RLU−background RLU)/(solvent RLU−background RLU)×100%. According to the four-parameter model fitting curve, the half maximal inhibitory concentration (IC50) of the compound was calculated, and the detection results were shown in Table 2.

NCI-N87 cells = assay: Inhibitory effect of compounds on NCI-N87 cell proliferation
Method: (1) Cell plating: First, tumor cells NCI-N87 were cultured in corresponding medium, then digested with trypsin, centrifuged, resuspended, and counted, and the cells were adjusted to an appropriate concentration for plating.
as §1
as §2, with “Table 12.” for “Table 2.”

MDA-MB-231 cells = assay: Inhibitory effect of compounds on MDA-MB-231 cell proliferation; settings: read-out: IC50, inhibitory activity on MDA-MB-231 cell proliferation
Method: (1) Cell plating: First, tumor cells MDA-MB-231 were cultured in corresponding medium, then digested with trypsin, centrifuged, resuspended, and counted, and the cells were adjusted to an appropriate concentration for plating.
as §1
as §2, with “Table 18.” for “Table 2.”

Jeko-1 cells = assay: Inhibitory effect of compounds on Jeko-1 cell proliferation; settings: read-out: IC50, inhibitory activity on Jeko-1 cell proliferation
Method: (1) Cell plating: First, tumor cells Jeko-1 were cultured in corresponding medium, then digested with trypsin, centrifuged, resuspended, and counted, and the cells were adjusted to an appropriate concentration for plating.
as §1
as §2, with “Table 20.” for “Table 2.”

NCI-H358 cells = assay: Inhibitory effect of compounds on NCI-H358 cell proliferation; settings: Homo sapiens, NCI-H358, 72 h, read-out: IC50, inhibitory activity on NCI-H358 cell proliferation, NCI-H358 human non-small cell lung cancer cells, 72 h incubation, Cell Counting-Lite 2.0
Method: (1) Cell plating: First, tumor cells NCI-H358 were cultured in corresponding medium, then digested with trypsin, centrifuged, resuspended, and counted, and the cells were adjusted to an appropriate concentration for plating.
as §1
as §2, with “Table 10.” for “Table 2.”

A549 cells = assay: Inhibitory effect of compounds on A549 cell proliferation; settings: Homo sapiens, A549, 72 h, read-out: IC50, inhibitory activity on A549 cell proliferation
Method: (1) Cell plating: First, tumor cells A549 were cultured in the corresponding medium, then digested with trypsin, centrifuged and resuspended, and counted, and the cells were adjusted to an appropriate concentration for plating.
as §1
as §2, with “cell activity” for “cell viability”, “Table 4.” for “Table 2.”

Hela cells = assay: Inhibitory effect of compounds on Hela cell proliferation; settings: Homo sapiens, HeLa, 72 h, read-out: IC50, inhibitory activity on Hela cell proliferation
Method: (1) Cell plating: First, tumor cells Hela were cultured in corresponding medium, then digested with trypsin, centrifuged, resuspended, and counted, and the cells were adjusted to an appropriate concentration for plating.
as §1
as §2, with “Table 14.” for “Table 2.”

Compound | pIC50 (HT29 cells; Homo sapiens, HT-29, 72 h) | pIC50 (MDA-MB-231 cells; Homo sapiens, MDA-MB-231, 72 h) | also measured
CC[C@@]1(O)C(=O)OCc2c1cc1n(c2=O)Cc2c-1nc1cc(F)c(C)c3c1c2[C@H](CN)CC3 (single isomer, unassigned) [Example 13 (5-7-B)] | 8.33 | 6.76 | pIC50 (NCI-N87 cells; Homo sapiens, NCI-N87, 72 h, read-out: IC50, inhibitory activity on NCI-N87 cell proliferation, NCI-N87 human gastric cancer cells, 72 h incubation, Cell Counting-Lite 2.0): 8.14; pIC50 (Jeko-1 cells; Homo sapiens, JeKo-1, 72 h): 9.74
CC[C@@]1(O)C(=O)OCc2c1cc1n(c2=O)Cc2c-1nc1cc(F)c(Cl)c3c1c2[C@@H](NC(=O)CO)CC3 [Example 9 (3-4-A), N-((1S,9S)-4-Chloro-9-ethyl-5-fluoro-9-hydroxy-10,13-dioxo-2,3,9,10,13,15-hexahydro-1H, 12H-benzo[de]pyrano[3′,4:6,7]indolizino[1,2-b]quinolin-1-yl)-2-hydroxyacetamide] | – | – | pIC50 (HT29 cells; HT29 human colon cancer cells, 72 h incubation, Cell Counting-Lite 2.0): 8.26; pIC50 (NCI-N87 cells; NCI-N87 human gastric cancer cells, 72 h incubation, Cell Counting-Lite 2.0, read-out: IC50, inhibitory activity on NCI-N87 cell proliferation): 8.36; pIC50 (MDA-MB-231 cells; MDA-MB-231 human breast cancer cells, 72 h incubation, Cell Counting-Lite 2.0): 6.55; pIC50 (Jeko-1 cells; Jeko-1 human mantle cell lymphoma cells, 72 h incubation, Cell Counting-Lite 2.0): 9.57
CC[C@@]1(O)C(=O)OCc2c1cc1n(c2=O)Cc2c-1nc1cc3c(cc1c2CCNCCOC)OCO3 [Example 22 (4-15), (S)-7-Ethyl-7-hydroxy-14-(2-((2-methoxyethyl)amino)ethyl)-7H-[1,3]dioxolano[4,5-g]pyrano[3′,4′:6,7]indolizino[1,2-b]quinolin-8,11 (10H,13H)-dione] | 8.28 | 6.76 | pIC50 (NCI-H358 cells): 7.75; pIC50 (Jeko-1 cells; Homo sapiens, JeKo-1, 72 h): 9.96
CC[C@@]1(O)C(=O)OCc2c1cc1n(c2=O)Cc2c-1nc1cc(Cl)c(C)c3c1c2[C@H](NC(=O)C1(O)CC1)CC3 [Example 7 (2-20-B), N-((1R,9S)-5-chloro-9-ethyl-9-hydroxy-4-methyl-10,13-dioxo-2,3,9,10,13,15-hexahydro-1H,12H-benzo[de]pyrano[3′,4′:6,7]indolizino[1,2-b]quinolin-1-yl)-1-hydroxycyclopropane-1-carboxamide] | 8.39 | – | pIC50 (A549 cells): 7.64
CC[C@@]1(O)C(=O)OCc2c1cc1n(c2=O)Cc2c-1nc1cc(F)c(C)c3c1c2[C@@H](NC(=O)[C@@H](O)CN(C)C)CC3 (single isomer, unassigned) [Example 20 (1-10-B)] | 7.99 | 7.56 | –
CC#C[C@H](O)C(=O)N[C@H]1CCc2c(C)c(F)cc3nc4c(c1c23)Cn1c-4cc2c(c1=O)COC(=O)[C@]2(O)CC [Example 1 (1-1-B), (S)—N-((1S,9S)-9-ethyl-5-fluoro-9-hydroxy-4-methyl-10,13-dioxo-2,3,9,10,13,15-hexahydro-1H,12H-benzo[de]pyrano[3′,4′:6,7]indolizino[1,2-b]quinolin-1-yl)-2-hydroxypent-3-yneamide] | 8.81 | – | pIC50 (Hela cells): 8.44
CC[C@@]1(O)C(=O)OCc2c1cc1n(c2=O)Cc2c-1nc1cc(F)c(C)c3c1c2[C@@H](NC(=O)[C@H](O)CN(C)C)CC3 (single isomer, unassigned) [Example 20 (1-10-A)] | 7.21 | 7.01 | –
